In brackets after ≈: the same amount, converted by molar mass.
How the values were obtained:
NIH3T3 [1] = experiment: Survival effect on NGF-dependent mouse NIH/3T3 cells expressing TrkA assessed as cell viability after 2 days by MTT assay; assay type: functional; details: NIH3T3, 48 h, read-out: ED50 (the source's name)
NIH3T3 [2] = experiment: Survival effect on NGF-dependent mouse NIH/3T3 cells expressing TrkB assessed as cell viability after 2 days by MTT assay; assay type: functional; details: NIH3T3, 48 h, read-out: ED50 (the source's name)

| Compound | EC50 (NIH3T3 [1]) [µg/mL] | EC50 (NIH3T3 [2]) [µg/mL] |
| --- | --- | --- |
| C=C1[C@H](OC(C)=O)[C@@H](OC(=O)c2ccccc2)[C@@H](OC(=O)c2ccccc2)C(C)(C)[C@H]2O[C@@H]2[C@@H](C)C(=O)[C@@]2(OC(C)=O)C[C@H](C)[C@H](OC(C)=O)[C@@H]2[C@H]1OC(C)=O [KANSUININ F] | > 50 | > 50 |
| C=C1[C@H](OC(C)=O)[C@@H](OC(=O)c2ccccc2)[C@@H](OC(=O)c2cccnc2)C(C)(C)[C@H]2O[C@@H]2[C@@H](C)C(=O)[C@@]2(OC(C)=O)C[C@H](C)[C@H](OC(C)=O)[C@@H]2[C@H]1OC(C)=O [KANSUININ E] | 0.23 (≈ 0.296 µM) | > 50 |
| C=C1[C@H](OC(C)=O)[C@@H](OC(=O)c2ccccc2)[C@@H](OC(=O)c2cccnc2)C(C)(C)[C@H]2O[C@](O)([C@H](C)C2=O)[C@@]2(OC(C)=O)C[C@H](C)[C@H](OC(C)=O)[C@@H]2[C@H]1OC(C)=O [KANSUININ D] | 0.55 (≈ 0.693 µM) | 0.22 (≈ 0.277 µM) |
| C=C1[C@H](OC(C)=O)[C@@H](OC(=O)c2ccccc2)[C@@H](OC(C)=O)C(C)(C)[C@H]2O[C@](O)([C@H](C)C2=O)[C@@]2(OC(C)=O)C[C@H](C)[C@H](OC(C)=O)[C@@H]2[C@H]1OC(C)=O [KANSUININ A] | 7.92 (≈ 10.8 µM) | 3.28 (≈ 4.49 µM) |

— ChEMBL document CHEMBL1148899, “Activity of macrocyclic jatrophane diterpenes from Euphorbia kansui in a TrkA fibroblast survival assay” (2004)
